Measured values from patent publication US12606529B2, “Sulfur and amide tropolone inhibitors of nucleotidyl transferases and uses therefor” (Saint Louis University, priority 2019, dated 2026).
Converted amounts (≈) assume the structure as drawn. Read-outs that look alike come from different tables or passages of the source.

Legend:
HBV replication = HBV replication inhibition in HepDES19 cells (strand-preferential qPCR); conditions: for EC50: Hepatitis B virus; for SI (CC50/EC50): cytotoxicity CC50 over HBV replication EC50
Protocol: Cells used for toxicity and HBV studies.
HBV replication inhibition studies. HepDES19 cells were seeded in 96-well plates at 4×10^4 cells per well in the absence of tetracycline. Test compounds in a final DMSO concentration of 1% were applied to cells 48 hours after induction of HBV replication and cells were incubated with compounds for 72 hours. Cells were washed in 200 μL of phosphate buffered saline (PBS) and lysed in 150 μL of core lysis buffer (10 mM Tris pH 7.4, 1% Tween20, 150 mM NaCl). Cells were incubated at room temperate on an orbital shaker at 350 rpm for 40 minutes. Cell lysate was transferred to a 96 well polymerase chain reaction (PCR) plate and centrifuged at 3300×g for 5 minutes. The supernatant (50 μL) from the cell lysate was transferred to a 96-well PCR plate and mixed with 20 units of micrococcal nuclease and 100 μM CaCl2. The lysate was incubated for 1 hour at 37° C., and then the nuclease was inactivated at 70° C. for ten minutes. Qiagen protease (0.005 Anson units) was added to the lysate and the mixture was incubated overnight. Qiagen protease was then inactivated at 95° C. for ten minutes.
The crude lysate was used as the template for strand-preferential quantitative polymerase chain reaction (q-PCR) analysis. Quantitative PCR was performed with 40 cycles of 95° C. for 15 s and 60° C. for 1 minute employing the Kappa Probe Force universal PCR master mix.

HSV-1 = test: Anti-HSV-1 replication assay (Vero cells, plaque titer); type: cell-based, herpes simplex virus 1; conditions: for log reduction at 1 µM: compound at 1 μM, read-out: HSV-1 suppression 1 μM; for log reduction at 5 µM: compound at 5 μM, read-out: HSV-1 suppression 5 μM
[1] = test system: C. neoformans var. grubii, KN99; test: C. neoformans growth inhibition assay (limiting dilution); type: cell-based, Cryptococcus neoformans; conditions: Cryptococcus neoformans, 48 h, 48 h, 35° C., read-out: C. neoformans MIC80
Protocol: Cell types used for C. neoformans studies. All inhibition assays were performed with C. neoformans var. grubii, KN99 (serotype A, MAT). Two clinical strains of C. neoformans var. grubii, serotype A, were provided by Tamara Doering and Andre Spec. […] Cells were diluted to OD650 0.001 in YNB-02 02 (0.67% yeast nitrogen base, 0.2% dextrose, pH 7.0 with 50 mM MOPs)+1% DMSO prior to addition to the plates for the inhibition assays.
C. neoformans growth inhibition assays. Compounds were tested in a limiting dilution assay with a starting optical density (at 650 nm) of 0.001 in YNB-02 plus 1% DMSO. Cells plus compound were incubated in 96-well clear round bottom plates covered with a Breath-easy® membrane without shaking for 48 hours at 35° C. Before measuring cell density, plates were shaken on a microtiter plate shaker at 900 rpm for 3 minutes to resuspend cells and optical density was measured at 650 nm. […] Each assay was done in triplicate and all values are the average of two or more independent assays. The data are presented as the average cell density as a percent of DMSO-only treated cells. MICs are reported as the minimal concentration needed to inhibit 80% of C. neoformans growth relative to vehicle-treated controls.

in vitro = conditions: human, HepDES19 cells
Protocol: Cells used for toxicity and HBV studies. […] Cells were maintained in Dulbecco's modified Eagle's medium (DMEM)/F12 media supplemented with 10% fetal bovine serum (FBS) and 1% penicillin/streptomycin (P/S) with 1 μg/mL tetracycline. Synchronized expression of HBV pgRNA was induced by removing tetracycline from the culture medium.
Cytotoxicity Assays. Qualitative assessments of cytotoxicity were done visually by inspecting the cells in the primary screening assays. […] The next day the compounds were added at 0.78 to 100 μM in a final concentration of 1% (v/v) DMSO, and the cells were incubated for 24 hours under conditions identical to those employed for the viral replication inhibition assays. Mitochondrial toxicity was measured by incubating the cells with 0.25 mg/mL thiazolyl blue tetrazolium bromide (MTT, SigmaAldrich Chemical Co.), the cultures were incubated for 60 mM, metabolites were solubilized in acidic isopropanol, and absorbance was read at 570 nm. CC50 values were calculated by non-linear curve fitting using GraphPad Prism using the three-parameter variable-response log(inhibitor)-versus-response algorithm with the bottom value set to zero.

human RNaseH1 = molecular target: T1, human RNaseH1 (Homo sapiens, UniProt O60930); test: Biochemical inhibition of human RNaseH1 activity; conditions: for SIApparent (huRH1 IC50/EC50): huRH1 IC50 over HBV replication EC50
T1 sequence (O60930 1-286): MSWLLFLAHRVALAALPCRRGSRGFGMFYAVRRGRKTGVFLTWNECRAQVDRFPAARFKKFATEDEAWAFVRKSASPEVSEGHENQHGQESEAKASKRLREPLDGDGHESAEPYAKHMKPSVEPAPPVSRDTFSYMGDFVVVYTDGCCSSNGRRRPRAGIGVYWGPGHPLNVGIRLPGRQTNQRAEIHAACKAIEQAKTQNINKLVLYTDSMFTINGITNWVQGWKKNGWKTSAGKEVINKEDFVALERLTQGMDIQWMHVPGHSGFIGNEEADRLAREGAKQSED
Protocol: Biochemical inhibition of human RNaseH1 activity. Quantitative inhibition of the human RNaseH1 in the biochemical assays was assessed using a molecular beacon assay as described previously (Edwards et al., 2017). Recombinant human RNaseH 1 (0.3 μg) was incubated with 100 nM RNA:DNA substrate, 50 mM HEPES pH 8.0, 100 mM NaCl, 2 mM Tris(2-carboxyethyl)phosphine hydrochloride (TCEP), 0.05% Tween20, 5 units of RNaseOut, test compounds (0 to 500 μM), and 5% DMSO in a 100 μL reaction volume. The substrate was formed by annealing a complementary RNA oligonucleotide to a hairpin DNA oligonucleotide to hold the hairpin DNA oligonucleotide in an open conformation. The DNA oligonucleotide has a 5′ fluorescein reporter and a 3′ black hole quencher. When the RNA is degraded from the substrate the DNA oligonucleotide closes to form a hairpin structure, decreasing in signal intensity. Reactions were initiated with 5 mM MgCl2 and fluorescence was read using a Synergy HTS multi-mode plate reader at 37° C. Alternatively, the HBV RNaseH version used was MBP-HRHgtCΔ5, a genotype C isolate which lacks the C-terminal 35 amino acids of the HBV RNaseH domain that are predicted to be unstructured. Quantitative inhibition of the human RNaseH1 in biochemical assays was assessed using a FRET-based RNaseH assay under conditions previously reported for an RNaseH molecular beacon assay (Edwards et al., 2017). […] Cleavage of the RNA strand released the fluorescein from quenching, increasing fluorescence. Reactions were monitored for 90 min at 37° C. in a plate reader and initial reaction rates were calculated. Reactions contained escalating concentrations of the compounds.

[2] = HepDES19, read-out: HBV EC50, Table 3 sulfur compounds, HBV replication, HepDES19 cells
[3] = Human alphaherpesvirus 1, Vero, Table 3 sulfur compounds, values separated by / are repeats
[4] = CC50, Table 3 sulfur compounds, MTT
[5] = Table 3 sulfur compounds, read-out: Hu RNaseH IC50
[6] = HepDES19, 72 h, Table 2 amides, HBV replication, HepDES19 cells, plus-polarity DNA, 72 h
[7] = HepDES19, read-out: EC50 against HBV replication
[8] = Table 2 amides, tested 0.19 to 50 μM
[9] = Table 2 amides, read-out: HuRH1 IC50
[10] = Human alphaherpesvirus 1, Vero, Table 2 amides, values separated by / are repeats

| Compound | EC50 (HBV replication; [2]) | log reduction at 1 µM (HSV-1; [3]) | log reduction at 5 µM (HSV-1; [3]) | MIC80 ([1]; Table 3 sulfur compounds) | CC50 at 24 h (in vitro; [4]) | IC50 (human RNaseH1; [5]) | EC50 (HBV replication; [6]) | MIC80 [1, 8] | CC50 at 24 h (in vitro; CC50 (μM), Table 2 amides, MTT) | IC50 (human RNaseH1; [9]) | log reduction at 5 µM (HSV-1; [10]) | further results |
| --- | --- | --- | --- | --- | --- | --- | --- | --- | --- | --- | --- | --- |
| O=c1c(O)cccc(S(=O)(=O)c2cccc3ccccc23)c1O [compound 698] | 6.18 µM | -0.35 | 4.85 | 49 µM (≈ 16.1 µg/mL) | 14.8 µM | 234 µM |  |  |  |  |  | log reduction at 0.33 µM (HSV-1; Human alphaherpesvirus 1, Vero, Table 3 sulfur compounds, compound at 0.33 μM, values separated by / are repeats, read-out: HSV-1 suppression 0.33 μM): -0.31 |
| Cc1cc(O)c(=O)c(O)cc1C(=O)N1CCN(C(c2ccc(F)cc2)c2ccc(F)cc2)CC1 [compound 1017] |  |  |  |  |  |  | 5.6 µM | 6 µM (≈ 2.8 µg/mL) | 3.9 ± 1.4 µM | 29.9 ± 10.7 µM |  | EC50 (HBV replication; [7]): > 2 µM |
| O=c1c(O)cccc(S(=O)(=O)Cc2ccccc2)c1O [compound 705] | 2.76 µM | 0.19 | 3.55 | 50 µM (≈ 14.6 µg/mL) | 8.4 µM | 135 µM |  |  |  |  |  |  |
| Cc1cc(O)c(=O)c(O)cc1C(=O)N1CCN(C2CC2)CC1 [compound 871] |  |  |  |  |  |  | 1.15 ± 0.4 µM | 50 µM (≈ 15.2 µg/mL) | 36.6 ± 3.6 µM | 88.2 ± 43.3 µM | -0.0192 | log reduction at 1 µM (HSV-1; [10]): -0.1 |
| C#CCCC1(CCNC(=O)c2cc(O)c(=O)c(O)cc2C)N=N1 [compound 384] |  |  |  |  |  |  | 0.66 ± 0.7 µM | 3.5 µM (≈ 1.1 µg/mL) | 17.6 ± 8.9 µM | 111 ± 48.8 µM | 0.77 |  |
| Cc1cc(O)c(=O)c(O)cc1C(=O)Nc1ccc(F)cc1F [compound 711] |  |  |  |  |  |  | 0.75 ± 0.3 µM | 4.5 µM (≈ 1.38 µg/mL) | 4.6 ± 0.8 µM | 184 µM | 0.32 | EC50 against HBV replication (HBV replication): sub-micromolar; SI (CC50/EC50) (HBV replication; Table 2 amides): 10.2; SIApparent (huRH1 IC50/EC50) (human RNaseH1; Table 2 amides): 247 |
| O=c1c(O)c(SCc2ccccc2)ccc(SCc2ccccc2)c1O [compound 703] | 10.6 µM | 4.56 | 5.88 | 6.75 µM (≈ 2.58 µg/mL) | 8.2 µM | 49.6 µM |  |  |  |  |  |  |
| Cc1cc(O)c(=O)c(O)cc1C(=O)N1CCN(C(=O)c2ccco2)CC1 [compound 800] |  |  |  |  |  |  | 0.52 ± 0.2 µM | 26 µM (≈ 9.32 µg/mL) | 16.5 ± 11.4 µM | 46.3 ± 10.2 µM |  |  |
| COC(=O)[C@H](CCSC)NC(=O)c1cc(O)c(=O)c(O)cc1C [compound 796] |  |  |  |  |  |  | 1.1 ± 0.1 µM | 18 µM (≈ 6.14 µg/mL) | 36 ± 24.1 µM | 83.3 ± 40.2 µM |  |  |
| Cc1cc(O)c(=O)c(O)cc1C(=O)N1CCSC1 [compound 712] |  |  |  |  |  |  | 0.77 ± 0.5 µM | 18 µM (≈ 4.81 µg/mL) | 6.4 ± 0.8 µM | 116 ± 67.6 µM | 0.36 |  |
| O=c1c(O)cccc(Sc2ccccc2)c1O [compound 691] | 43.6 µM | 0.72 | 5.69 | 1 µM (≈ 0.246 µg/mL) | 19.5 µM | 31.9 µM |  |  |  |  |  | Reduction of HSV-1 titers / suppression of HSV-1 replication at 5 μM (HSV-1; 5 μM, plaque forming units (PFU)/ml): > 3 log10 |
| Cc1cc(O)c(=O)c(O)cc1C(=O)N1CCN(Cc2c(F)cccc2Cl)CC1 [compound 1021] |  |  |  |  |  |  | 3.05 ± 0.6 µM | 4.5 µM (≈ 1.83 µg/mL) | 10.4 ± 7.3 µM | 44 ± 46.2 µM |  | EC50 (HBV replication; [7]): > 2 µM |
| CCCCSc1ccc(SCCCC)c(O)c(=O)c1O [compound 694] | 12.6 µM | 4.85 | 5.86 | 2 µM (≈ 0.629 µg/mL) | 1.8 µM | 127 µM |  |  |  |  |  | Therapeutic index (CC50/EC50) for HBV (TI, SI) (HBV replication): 0.14 |
| Cc1cc(O)c(=O)c(O)cc1C(=O)Nc1ccc(F)nc1 [compound 707] |  |  |  |  |  |  | 0.54 µM | 36 µM (≈ 10.4 µg/mL) | 19.4 ± 8.4 µM | 148 ± 22.3 µM | -0.18 | SI (CC50/EC50) (HBV replication; Table 2 amides): 36.2; SIApparent (huRH1 IC50/EC50) (human RNaseH1; Table 2 amides): 277 |
| Cc1cc(O)c(=O)c(O)cc1C(=O)N1CCN(C(=O)C2COc3ccccc3O2)CC1 (stereo not shown) [compound 876] |  |  |  |  |  |  | 0.7 ± 0.4 µM | 9 µM (≈ 3.84 µg/mL) | 9.2 ± 3.2 µM | 39.2 ± 40.6 µM | 0.273 | log reduction at 1 µM (HSV-1; [10]): -0.0739 |
| O=c1c(O)cccc(SCCc2ccccc2)c1O [compound 704] | 52 µM | 0.06 | 5.72 | 1.4 µM (≈ 0.384 µg/mL) | 21.6 µM | 24.7 µM |  |  |  |  |  | EC50 (HBV replication; [7]): 52 µM |
| Cc1cc(O)c(=O)c(O)cc1C(=O)N1CCCCC1 [compound 390] |  |  |  |  |  |  | 0.31 ± 0.1 µM | 22 µM (≈ 5.79 µg/mL) | 24.9 ± 11.6 µM | 106 ± 64.6 µM | 0.52 | EC50 (HBV replication; [7]): 0.31 µM; CC50 at 24 h (in vitro; CC50): > 20 µM |
| Cc1cc(O)c(=O)c(O)cc1C(=O)N1CCN(C(=O)c2cccnc2)CC1 [compound 918] |  |  |  |  |  |  | 1.45 ± 0.4 µM | 50 µM (≈ 18.5 µg/mL) | 43.8 ± 10.7 µM | 127 ± 98.1 µM |  |  |
| Cc1cc(O)c(=O)c(O)cc1C(=O)N1CCN(c2ncccn2)CC1 [compound 1016] |  |  |  |  |  |  | 0.9 µM | 18 µM (≈ 6.16 µg/mL) | 24.6 ± 40 µM | 5.1 ± 2.7 µM |  |  |
| O=c1c(O)cccc(S)c1O [compound 701] | 7.6 µM |  | 0.94 | 5 µM (≈ 0.851 µg/mL) | 63.9 µM | 46 µM |  |  |  |  |  |  |
